Measurements from patent US12533345B2 (AARHUS UNIVERSITET, priority 2015, dated 2026).
Where two headings read alike, the source gives them in different places.

Experiments:
[1] = system: CIC-1 inhibited rat soleus muscles; assay: Myotonia (tail AUC of force response) in 9AC-treated isolated rat soleus muscle; conditions: for EC50: Rattus norvegicus; for Ability to abolish myotonia / Slope of fit: rat soleus; for Ability to abolish myotonia: 9AC, increasing concentrations; for Reduction of myotonia within clinically observed concentration ranges: isolated muscle, species not stated at this place (study on rat and human); for Slope of fit: 3-parameter sigmoidal fit of AUC vs concentration
rat EDL muscles = assay: LDH release from stimulated 9AC-treated (myotonic) rat EDL muscles; format: cell-based; conditions: stimulation for 60 min, LDH followed 3 hrs after contraction
Procedure: In all cases a sample was taken before stimulation (Pre), the muscles were then stimulated to contraction for 2 s at 30 Hz by 0.2 ms pulses every 3 minutes for 60 min (20 stimulations) or left resting. Open symbols are from muscles incubated with 9AC±LTG or RUF. Solid triangles are from muscles incubated with 9AC without stimulation. Immediately after cessation of stimulation, a new sample was taken from solution incubating the muscles. For the next 180 minutes a sample was taken from the incubating solution every 30 minutes, as designated by the time after stimulation. The period from cessation of stimulation to 180 min after stimulation is termed recovery.
EDL muscles from rats were isolated and placed in small chambers with oxygenated as previously described in detail (Gissel H1, Clausen T. Excitation-induced Ca(2+) influx in rat soleus and EDL muscle: mechanisms and effects on cellular integrity. Am J Physiol Regul Integr Comp Physiol. 2000 279(3): R917-24).
To explore for an effect of myotonia on muscle fibre integrity and the effect of the drugs hereupon, the release of the intracellular protein from the muscle, lactate dehydrogenase (LDH), to the incubation solution was determined in contracting EDL muscles.

[2] = system: non-myotonic rat soleus muscles; assay: Contractile force in non-myotonic isolated rat soleus muscles; format: cell-based; conditions: three hrs incubation, 5 and 60 Hz stimulation, similar to time-matched controls
Procedure: To first test for effects of the three drugs (RUF, LCM and LTG) on force in non-myotonic rat soleus muscles, muscles were exposed to 2 s stimulations at both 5 Hz and 60 Hz every 10 mins during three hrs of drug incubation. The drug concentrations were the highest free concentrations that are tolerated clinically: For both 5 and 60 Hz stimulation, incubation with 5 μM LCM reduced force by ˜6-8% in two muscles. With 25 μM LTG force was reduced by ˜6% in three muscles, and with 100 μM RUF force was reduced by 4% in three muscles. In all cases, these reductions in force during the three hours were similar to reductions observed in time-matched control muscles.

[3] = system: isolated human abdominal rectus muscle; assay: Myotonia (tail AUC) in 9AC-treated bundles of isolated human abdominal rectus muscle; format: cell-based; conditions: for EC50: Homo sapiens, read-out: EC50 (concentration required to reduce AUC to 50% of maximal value); for Slope of fit: human muscle bundles, 3-parameter sigmoidal fit, mean ± SEM; for Ability to abolish myotonia: isolated human muscles, 9AC, increasing concentrations
Procedure: As in rat muscles myotonia was induced with 9-AC and quantified from the AUC as determined from the cessation of stimulation to force returned to baseline. […] C and D show similar data for RUF (n=4) and LTG (n=6), respectively.
The use of human muscles was approved by the Danish Ethics Committee, Region Midtjylland, Comité I (reference number Jan. 10, 1972-20-13) and was performed in accordance with the Helsinki Declaration. Informed consent was obtained from all subjects before inclusion. Muscles were obtained from 4 male subjects admitted in relation to planned aortic aneurysm surgery at Skejby hospital. […] After isolation the tissue was transported to the laboratory at the University (<30 min) in a HEPES based solution (pH 7.4) at ˜5° C. Upon arrival to the laboratory, the tissue was incubated in often-replaced fresh Krebs-Ringer bicarbonate solution equilibrated with 5% CO2 in oxygen at 30° C. for 10 to 20 min, before further dissection into smaller bundles of approx. 4 cm length weighing 515±61 mg. For contraction experiments, bundles were tied at both ends with polyester string, to enable mounting of the preparations in the setups for measurement of contractile force.
The experiments in FIG. 1 were repeated for small muscle bundles of human abdominal muscle. 9AC was used to induce myotonia and, subsequently, LCM, RUF or LTG were added at increasing concentrations. In all cases, myotonia was reduced with increased concentration of drug. […] Similar traces were obtained with LCM-and LTG-treated bundles of human muscle. FIG. 2B-D show data and sigmoidal fits from individual bundles with additions of LCM (n=5), RUF (n=5) and LTG (n=6), respectively.

[4] = 10 min, read-out: EC50 (reduction of AUC), rat soleus, 100 μM 9AC, 15 Hz 2 s every 10 min, two muscles per compound
[5] = read-out: EC50 (concentration required to reduce AUC to 50% of maximal value), rat soleus, 100 μM 9AC, 15 Hz 2 s stimulation, 3-parameter sigmoidal fit, mean ± SEM, Table 1 prints no unit, b139 gives concentrations in μM

Structure (SMILES) | EC50 [1, 4] | Ability to abolish myotonia [1] | Effect on myotonia-induced LDH release (muscle damage) (rat EDL muscles) | EC50 [3] | Slope of fit [3] | Ability to abolish myotonia [3] | EC50 [1, 5] | Reduction of myotonia within clinically observed concentration ranges [1] | Slope of fit ([1]; mean ± SEM) | other results
Cc1c(C(N)=O)nnn1Cc1ccccc1 [Compound 2, 1-benzyl-5-methyl-1H-1,2,3-triazole-4-carboxamide] | 19.1 µM | completely abolish myotonia | – | – | – | – | – | – | – | –
Nc1nnc(-c2cccc(Cl)c2Cl)c(N)n1 [Lamotrigine, 6-(2,3-dichlorophenyl)-1,2,4-triazine-3,5-diamine] | – | completely abolish myotonia | Very similar effects | 5.54 ± 0.88 µM | −0.30 ± 0.068 | completely abolish myotonia | 1.52 ± 0.13 µM | 92±2% | −0.39 ± 0.042 | Reduction of force ([2]; 25 μM LTG): ~6%; AUC as % of the full myotonic state ([1]; 0.5 μM LTG (FIG. 3 A3)): 90%; Reduction of AUC (myotonia) ([1]; 2 μM LTG (FIG. 1 C3)): ~46%; Reduction of AUC (myotonia) ([1]; 16 μM LTG (FIG. 1 C4)): ~98%
NC(=O)c1nnn(Cc2ccccc2)c1N [Compound 1, 5-amino-1-benzyl-1H-1,2,3-triazole-4-carboxamide] | 24.7 µM | completely abolish myotonia | – | – | – | – | – | – | – | –
NC(=O)c1cn(Cc2c(F)cccc2F)nn1 [Rufinamide, 1-(2,6-Difluorobenzyl)-1H-1,2,3-triazole-4-carboxamide] | – | completely abolish myotonia | completely blocked | 22.5 ± 1.73 µM | −0.33 ± 0.035 | completely abolish myotonia | 18.1 ± 1.84 µM | 92±2% | −0.29 ± 0.02 | Reduction of force ([2]; 100 μM RUF): 4%; Effect on myotonia ([3]; 80 μM RUF, single human muscle bundle, 100 μM 9AC (FIG. 2A)): almost full abolishment of myotonia; Reduction of AUC (myotonia) ([1]; 20 μM RUF, 9AC treated muscle (FIG. 1 B3)): more than 50%; Reduction of AUC (myotonia) ([1]; 100 μM RUF (FIG. 1 B4)): ~98%; EC50 ([1]; read-out: RUF concentration for AUC to be reduced by 50%, in presence of 0.5 μM LTG (n=6)): 7 µM; EC50 ([1]; read-out: RUF concentration for AUC to be reduced by 50%, pre-incubation with 1 μM LTG (n=4)): 3.1 µM; RUF concentration less than expected if RUF and LTG acted purely additively ([1]; isobole plot, 0.5 μM LTG): 5 µM; RUF concentration less than predicted by the assumption of additivity ([1]; isobole plot, 1 μM LTG): 3 µM; RUF concentration for half effect as % of concentration expected for additive action ([1]; with 0.5 μM or 1 μM LTG, both cases): around 50%
